These are literature values, as cited in patent US9890223B2, “Resin particles and process for producing same, antiglare film, light-diffusing resin composition, and external preparation” (SEKISUI PLASTICS CO., LTD., priority 2010, dated 2018).

For this data set the following is noted: 20° C.
`C=C(C)C(=O)OC` [Methyl methacrylate]: the “Solubility in Water” value is on record as 1.72 % by weight.

In the case of `C=C(C)C(=O)OCCCC` [n-butyl methacrylate], the “Solubility in Water” value is 0.04 % by weight.

As to `C=C(C)C(=O)OCCCCCCCCCCCC` [Lauryl methacrylate], the “Solubility in Water” value was 0.01 or less % by weight.

Regarding `C=C(C)C(=O)OCC(C)C` [Isobutyl methacrylate], the “Solubility in Water” value was 0.04 % by weight.

As for `C=C(C)C(=O)OC(C)(C)C` [tert-butyl methyacrylate], the “Solubility in Water” value is on record as 0.05 % by weight.
